Biological target: α1 receptors
Assay: Receptor binding assay, [3H]prazosin, human cerebral cortex (HCC) membranes
Settings: 22°C, 30 minutes, read-out: Ki (nM) α1 human brain
Description: Tissue preparation: Membrane suspensions were prepared from human cerebral cortex (HCC, for α1 receptors) obtained from the UCI Organ and Tissue Bank. Briefly, tissues (1g) were homogenized in 25 mL of ice-cold 5 mM tris, pH 7.4 with a Polytron homogenizer for 30 sec at setting #7, and centrifuged for 10-12 minutes at 300 x g a 4°C. The supernatant was filtered through 2 layers of gauze and diluted 1:2 with 50 mM Tris-HCl buffer, pH 7.4, then centrifuged at 49,000 x g for 20 minutes. The pellet fraction was washed 3 times (resuspended in Tris-HCl buffer and centrifuged for 20 minutes at 49,000 x g). The pellet was then stored at -80°C until the binding assay.
Binding Studies: The radioligands [^3H]rauwolscine (specific activity 80 Ci/mmol) and [^3H]prazosin (specific activity 76 Ci/mmol) were obtained from New England Nuclear, Boston, MA. Frozen membrane pellet was resuspended in 25 mM glycine/glycine, pH 7.5 and incubated with radioligand under the following conditions: CHO-C10, CHO-RNG, CHO-C4-[^3H]rauwolscine, 22°C, 30 minutes; RKC-[^3H]rauwolscine, 0°C, 120 minutes; and, HCC-[^3H]prazosin, 22°C, 30 minutes in a final volume of 500 ul. At the end of the incubation period, the samples were filtered through glass filters (Whatman GF/B) in a 96 well cell harvester and rapidly washed four times with 4 mL of iced-cold 50 mM Tris-HCl buffer. The filters were then oven dried and transferred to scintillation vials containing 10 mL of Beckman's Ready Protein® scintillation cocktail for counting. Specific binding defined by 10 uM phentolamine for competition studies were as follows: 2.4 nM [^3H]brimonidine-RbICB 62%; 2.4 nM [^3H]rauwolscine-RbICB 75%; 2 nM [^3H]rauwolscine-RbKc 88%; 0.3 nM [^3H] rauwolscine-CHO-C10 99%; 0.4 nM [^3H]rauwolscine-CHO-RNG 99%, 0.3 nM [^3H]prazosin 87%; and 1 nM [^3H]rauwolscine-CHO-C4 90%. Protein concentrations were determined with a protein assay kit from Bio Rad. Binding isotherms, equilibrium dissociation and affinity constants were analyzed and determined by the non-linear least squares curve fitting programs EBDA (BioSoft) or AccuFit Competition/Saturation by Beckman.
The radioligands [^3H)rauwolscine (specific activity 80 Ci/mmol) and [^3H]prazosin (specific activity 76 Ci/mmol) were obtained from New England Nuclear, Boston, MA. Frozen membrane pellet was resuspended in 25 mM glycine/glycine, pH 7.4 and incubated with radioligand under the following conditions: CHO-C10, CHO-RNG, CHO-C4-[^3H]rauwolscine, 22°C, 30 min.; and, HCC-[^3H]prazosin, 22°C, 30 minutes in a final volume of 500 ul. At the end of the incubation period, the samples were filtered through glass fiber filters (Whatman GF/B) in a 96 well cell harvester and rapidly washed four times with 4 mL of iced-cold 50 mM Tris-CHl buffer. The filters were then oven dried and transferred to scintillation vials containing 5 mL of Beckman's Ready Protein® scintillation cocktail for counting. Specific binding defined by 10 uM phentolamine for competition studies were as follows: 0.3 nM[^3H] rauwolscine-CHO-C10 99%; 0.4 nM [^3H]rauwolscine-CHO-RNG 99%, and 0.3 nM [^3H] prazosin-HCC 87%. Protein concentrations were determined with a protein assay kit from Bio Rad. Binding isotherms, equilibrium dissociation and affinity constants were analyzed and determined by the non-linear least squares curve fitting programs AccuFit Competition/Saturation by Beckman.

Ki [nM] | SMILES
10600 | Cc1ccccc1Nc1ncc[nH]1
5940 | Clc1cccc(Cl)c1Nc1ncc[nH]1
7610 | COc1ccc(Nc2ncc[nH]2)c(C)c1
23200 | Clc1ccccc1Nc1ncc[nH]1
4980 | c1cc2c(c(Nc3ncc[nH]3)c1)CCCC2
67500 | c1ccc(Nc2ncc[nH]2)cc1
2150 | Cc1c(Nc2ncc[nH]2)ccc2c1OCCO2
100000 | Brc1c(Nc2ncc[nH]2)ccc2nccnc12
9980 | Brc1ccccc1Nc1ncc[nH]1

SMILES | Ki [nM]
Cc1c(Nc2ncc[nH]2)ccc2c1NCCO2 | 14800
Cc1c(Nc2ncc[nH]2)ccc2nccnc12 | 30600
